The source made the active and inactive calls. No cut-off for these calls is given here.

The test system of the experiment is SARS-CoV-2. As to the kind of experiment: Antiviral activity against SARS-CoV-2 pseudotyped with delta spike protein infected in HEK293T cells harbouring hACE2 assessed as decrease in virus-like particle cellular entry at 10 uM preincubated with cells for 3 hrs followed by viral infection and measured after 72 hrs by ONE-Glo-Ex luciferase assay. As to conditions: Severe acute respiratory syndrome coronavirus 2, time 75.0 hrs. The class given is functional, organism-based.
On to `N=C(N)NCCC[C@H](NC(=O)[C@H](Cc1ccccc1)NC(=O)[C@H](CCC(N)=O)NC(=O)OCc1ccccc1)C(=O)c1nccs1`, for which the result was inactive.

On to `CN(C)C(=O)COC(=O)Cc1ccc(OC(=O)c2ccc(NC(=N)N)cc2)cc1` [CAMOSTAT], for which the result was inactive.

In the case of `CS(=O)(=O)N[C@@H](CCC(N)=O)C(=O)N[C@@H](Cc1ccccc1)C(=O)N[C@@H](CCCNC(=N)N)C(=O)c1nc2ccccc2s1`, the outcome was inactive.

Consider `CCOC(=O)[C@H]1O[C@@H]1C(=O)N[C@@H](CC(C)C)C(=O)NCCC(C)C`, for which the outcome was Active.
